The subject of data set [1] is subject's skin (skin irritation caused by lactic acid). Nature of the data set: Lactic acid skin irritation challenge, double-blind randomized vehicle-controlled clinical trial (cumulative sensory irritation). Type of data set: in vivo, human. Conditions: for Percent Inhibition (average inhibition of cumulative irritation): cation salts at 250 mM, average over clinical tests of over 550 subjects, 7.5% lactic acid challenge; for anti-irritant activity (in words): clinical trials, topical; for Percent Inhibition: representative subject panels, cation concentrations of 250 mM, vehicle 10% EtOH. The protocol: The trials were conducted in a double blind, randomized, vehicle-controlled manner. Various formulations of the invention were tested in over 550 people.
Controls were performed by applying a corresponding formulation without any added cation to a contralateral portion of the subject's skin.
The following scaled scores were used for sensory assessment:
Cumulative irritation data are set forth in the following tables, and are depicted in FIGS. 9 and 10.

Data set [2] has as its system skin irritation. Nature of the data set: Inhibition of skin irritation by salts in Elizabeth Arden Visible Difference Refining Toner. The class given is in vivo. Conditions: topical solution in Elizabeth Arden Visible Difference Refining Toner, various amounts. The protocol:
Cation salts of the invention were formulated at various concentrations in various commercially available topical cosmetic products.
Topical solution forms of potassium nitrate, potassium chloride, potassium citrate, lithium sulfate, lithium nitrate and lithium acetate were prepared by combining various amounts of the named salts with Elizabeth Arden Visible Difference Refining Toner (an alcohol-containing solution).

The subject of data set [3] is sodium channels. Conditions: cell membranes; cited from earlier work.
The test system of data set [4] is tooth sensitivity. To be noted: dentifrice, two to six weeks of continuous use; cited from earlier work.
For data set [5] the following is noted: cited from earlier work.
Data set [6] relates to exposed tooth pulp. To be noted: exposed tooth pulp vs dentin; cited from earlier work.
The test system of data set [7] is exposed tooth nerves. To be noted: cited from earlier work.
For data set [8], the system named is brains of test animals. Conditions: applied directly to the brains of test animals; cited from earlier work.
The conditions of data set [9]: in vivo, po; cited from earlier work.

Here are results for 17 compounds from US5756107A, “Formulations and methods for reducing skin irritation” (Cosmederm Technologies, priority 1994, dated 1998).

Structures are written as SMILES. “Also recorded” adds a separate entry of the source. Structures can show the parent of a compound that is named as a salt.

For `O=S(=O)([O-])[O-].[Li+].[Li+]` [Lithium sulfate], the “Percent Inhibition (cumulative irritation, dose-response)” value in data set [1] (31 mM) is given as 2%; in [1] (62 mM) it was -7%; in data set [1] (125 mM), 16%; in data set [1] (250 mM), 27%; in data set [1] (500 mM), 30%. For the same compound, the “Percent Inhibition (average inhibition of cumulative irritation)” value in [1] came to 35%. Also, in data set [1], the “anti-irritant activity (in words)” value is given as “overall efficacy of the subject formulations is evident; also recorded: particularly active as anti-irritants”. In addition, the “Percent Inhibition” value in data set [1] amounted to 39%. For the same compound, in data set [2], the “inhibition of skin irritation (in words)” value is recorded as “effective to inhibit skin irritation”.
For the compound `O=C([O-])CC(O)(CC(=O)[O-])C(=O)[O-].[K+].[K+].[K+]` [potassium citrate], the “inhibition of skin irritation (in words)” value in data set [2] is given as “effective to inhibit skin irritation”.
Take `[Li+]` [lithium (Li^+), lithium]: the “anti-irritant activity (in words)” value in data set [1] was “effective, when applied topically to the skin in appropriate concentrations and vehicles, to suppress the relatively severe stinging, burning, tingling, itching and/or erythema”. In data set [1] (preliminary studies, low concentration, vehicle includes glycerol), the “anti-irritant efficacy, effect of glycerol in the vehicle” value is given as “increased if the vehicle includes glycerol”. Also, the “block of sodium channels” value in [3] was “block sodium channels on cell membranes”.
On to `O=C(O)C(=O)O` [Potassium oxalate, potassium oxalate], for which, in data set [1], the “anti-irritant activity (in words)” value was “particularly active as anti-irritants” and the “Percent Inhibition” value is 30%.
On to `[Cl-].[Cl-].[Sr+2]` [strontium chloride, reference compound], for which the tooth sensitivity entry in data set [4] is listed as “reduce tooth sensitivity”.
For `O=[N+]([O-])[O-].[Li+]` [Lithium nitrate], in [1], the “Percent Inhibition (average inhibition of cumulative irritation)” value amounted to 20%, the “anti-irritant activity (in words)” value was “particularly active as anti-irritants” and the “Percent Inhibition” value turned out to be 16%. The “inhibition of skin irritation (in words)” value in data set [2] is “effective to inhibit skin irritation”.
As to `[Cl-].[Li+]` [Lithium chloride], in data set [1], the “Percent Inhibition (average inhibition of cumulative irritation)” value turned out to be 0% and the “Percent Inhibition” value is listed as 6%.
In the same order, the values of `O=S(=O)([O-])[O-].[K+].[K+]` [Potassium sulfate] are 15% and 27%.
As for `O=C(O)O` [Lithium carbonate, lithium carbonate], in data set [1], the “anti-irritant activity (in words)” value is “particularly active as anti-irritants” and the “Percent Inhibition” value worked out at 69%.
As for `O=S(=O)([O-])[O-].[Mg+2]` [magnesium sulfate], the anesthesia or analgesia entry in [5] (intravenous) was “produces neither anesthesia nor even analgesia in humans”.
For `O=[N+]([O-])[O-].[K+]` [Potassium nitrate], the “Percent Inhibition (cumulative irritation, dose-response)” value in [1] (31 mM) was -3%; in [1] (125 mM), 18%; in data set [1] (250 mM), 29%; in [1] (500 mM), 60%. The “Percent Inhibition (average inhibition of cumulative irritation)” value in [1] was found to be 30%. Moreover, the “anti-irritant activity (in words)” value in data set [1] is “particularly active as anti-irritants”. Moreover, in data set [1], the “Percent Inhibition” value is listed as 29%. Also, the tooth sensitivity entry in data set [4] is listed as “reduce tooth sensitivity”. In addition, the “inhibition of skin irritation (in words)” value in [2] is “effective to inhibit skin irritation”.
For the compound `[K+]` [potassium (K^+), potassium], the “anti-irritant activity (in words)” value in [1] was “effective, when applied topically to the skin in appropriate concentrations and vehicles, to suppress the relatively severe stinging, burning, tingling, itching and/or erythema”. In addition, the “pain on application to tooth pulp or dentin” value in data set [6] was “pain is induced when potassium ion is applied to exposed tooth pulp but not when applied to the dentin”. In addition, the nerve electrical responses result in data set [7] was “evokes a transient electrical response followed by inhibition of excitability”.
On to `[Ca+2]` [calcium], for which the nerve electrical responses result in data set [7] is recorded as “may suppress nerve electrical responses”.
Regarding `[Mg+2]` [magnesium], the “neural or synaptic activity” value in data set [8] is “depressed neural or synaptic activity, and even a sleep-like state”. In addition, the “paralysis or depressed neural activity” value in data set [9] is “does not result in paralysis or depressed neural activity in healthy individuals”. Also, the nerve electrical responses entry in data set [7] was “may suppress nerve electrical responses”. Further, in data set [5] (magnesium ion, intravenously-administered magnesium sulfate), the “paralysis of skeletal muscles” value is on record as “induces paralysis of skeletal muscles”.
`O=C([O-])[C@H](O)[C@@H](O)[C@H](O)[C@H](O)CO.[K+]` [Potassium gluconate]: in [1], the “Percent Inhibition (average inhibition of cumulative irritation)” value amounted to 25%, the “anti-irritant activity (in words)” value is “particularly active as anti-irritants” and the “Percent Inhibition” value is listed as 25%.
On to `CC(=O)O` [Lithium acetate], for which, in data set [1], the “Percent Inhibition (average inhibition of cumulative irritation)” value is on record as 70%, the “anti-irritant activity (in words)” value is reported as “particularly active as anti-irritants” and the “Percent Inhibition” value worked out at 67%. For the same compound, the “inhibition of skin irritation (in words)” value in data set [2] is recorded as “effective to inhibit skin irritation”.
In the case of `[Cl-].[K+]` [Potassium chloride], in data set [1], the “Percent Inhibition (average inhibition of cumulative irritation)” value turned out to be 40%, the “anti-irritant activity (in words)” value is recorded as “overall efficacy of the subject formulations is evident; also recorded: particularly active as anti-irritants” and the “Percent Inhibition” value was determined as 38%. Also, the “inhibition of skin irritation (in words)” value in data set [2] is recorded as “effective to inhibit skin irritation”.
